From patent publication US12116388B2, “Amylin receptor agonists” (Novo Nordisk A/S, priority 2022, dated 2024)
Starred links: 1 amine or outer side, 2 acyl side, 3 side chain; linkers in the order of their positions; H or OH if unused. Residues, ends and D or L forms follow the SMILES beside them. Groups on a side chain read outwards from the residue. *: point of attachment. C20 diacid = O=C(O)CCCCCCCCCCCCCCCCCCC(=O)*; C18 diacid = O=C(O)CCCCCCCCCCCCCCCCC(=O)*; γGlu = O=C(O)[C@H](CCC(=O)[*:2])N[*:1]

Experiments:
[1] = target: T1, human amylin receptor (hAMYR3) (Homo sapiens, UniProt O60896+P30988); experiment: Human amylin receptor (hAMYR3) in vitro potency assay, CRE-luciferase reporter in BHK cells; assay type: cell-based; conditions: BHK hAMYR3/CRE-Luc cells, 3 hours incubation, assay buffer with 1% ovalbumin
T1 construct: host or cells: BHK (Baby Hamster Kidney), Hollex-1 cell line further transfected with RAMP3
In short: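 BHK cells stably expressing human calcitonin receptor (a) plus RAMP3 and a CRE-luciferase reporter, seeded overnight, then exposed to 7-point 7-fold dilutions (often from ~10 nM) in DMEM/HEPES buffer with 1% ovalbumin for 3 h at 37 °C. Luciferase luminescence read after SteadyLite Plus addition.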

[2] = target: T2, human calcitonin receptor (hCTR) (Homo sapiens, UniProt P30988); experiment: Human calcitonin receptor (hCTR) in vitro potency assay, CRE-luciferase reporter in BHK cells; assay type: cell-based; conditions: BHK hCTR/CRE-Luc cells, 3 hours incubation, assay buffer with 1% ovalbumin; read-out: hCalcR potency, EC50
T2 construct: host or cells: BHK (Baby Hamster Kidney), Hollex-1 cell line
T2 sequence (P30988 25-474): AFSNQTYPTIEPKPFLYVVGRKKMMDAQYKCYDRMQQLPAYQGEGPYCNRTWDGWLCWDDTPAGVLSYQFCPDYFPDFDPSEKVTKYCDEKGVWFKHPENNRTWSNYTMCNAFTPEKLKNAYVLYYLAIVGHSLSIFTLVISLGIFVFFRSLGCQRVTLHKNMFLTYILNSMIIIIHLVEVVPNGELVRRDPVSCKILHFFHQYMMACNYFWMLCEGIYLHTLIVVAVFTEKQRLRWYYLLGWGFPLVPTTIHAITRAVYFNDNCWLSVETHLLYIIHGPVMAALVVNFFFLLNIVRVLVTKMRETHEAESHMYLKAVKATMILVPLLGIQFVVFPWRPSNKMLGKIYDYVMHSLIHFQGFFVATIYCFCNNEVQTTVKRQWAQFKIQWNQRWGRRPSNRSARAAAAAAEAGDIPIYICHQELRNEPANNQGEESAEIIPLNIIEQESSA
In short: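 BHK cells stably co-expressing human calcitonin receptor and a CRE-luciferase reporter, seeded the day before, were exposed to 7-fold serial dilutions (7 concentrations, often starting near 10 nM) in DMEM/HEPES/1% ovalbumin buffer for 3 h at 37 °C. Luminescence was then read after SteadyLite Plus addition.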

T1 sequence (O60896 24-148, one chain of several): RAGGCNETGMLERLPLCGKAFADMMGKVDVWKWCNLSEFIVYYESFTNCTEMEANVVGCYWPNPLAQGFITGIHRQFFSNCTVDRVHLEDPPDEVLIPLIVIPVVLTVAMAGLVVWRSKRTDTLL

CC[C@H](C)[C@H](NC(=O)[C@@H]1CCCN1C(=O)CNC(=O)[C@H](Cc1ccccc1)NC(=O)[C@H](Cc1c[nH]cn1)NC(=O)[C@H](Cc1c[nH]cn1)NC(=O)[C@H](CC(C)C)NC(=O)[C@H](Cc1ccccc1)NC(=O)[C@H](CCC(=O)O)NC(=O)[C@H](C)NC(=O)[C@H](CC(C)C)NC(=O)[C@H](CCCNC(=N)N)NC(=O)[C@H](C)NC(=O)[C@@H](NC(=O)[C@H](CCC(N)=O)NC(=O)[C@H](C)NC(=O)[C@@H](NC(=O)[C@H](CO)NC(=O)[C@H](CC(C)C)NC(=O)[C@H](CCC(=O)O)NC(=O)CNC(=O)[C@H](C)NC(=O)CC[C@H](NC(=O)CCCCCCCCCCCCCCCCC(=O)O)C(=O)O)[C@@H](C)O)[C@@H](C)O)C(=O)N[C@@H](CC(C)C)C(=O)N1CCC[C@H]1C(=O)N1CCC[C@H]1C(=O)N[C@H](C(=O)N[C@@H](CC(=O)O)C(=O)N[C@H](C(=O)NCC(=O)N[C@@H](CO)C(=O)N[C@@H](CCC(=O)O)C(=O)N[C@H](C(=O)N1CCC[C@H]1C(N)=O)[C@@H](C)O)C(C)C)[C@@H](C)O [Compound 16, N^1-[(4S)-4-carboxy-4-(17-carboxyheptadecanoylamino)butanoyl]-[Ala1,Gly2,Glu3,Leu4,Ser5,Ala7,Gln8,Ala10,Glu14,His17,Pro25,Pro28,Pro29,Asp31,Glu35,Pro37],des-(19-22)-human amylin] ({C18 diacid-γGlu}-AGELSTAQTARLAEFLHHFGPILPPTDVGSETP-NH2)
EC50 [1]: 1.25 pM | EC50 [2]: 1.03 pM

CC[C@H](C)[C@H](NC(=O)[C@H](C)NC(=O)CNC(=O)[C@H](Cc1ccccc1)NC(=O)[C@@H]1CCCN1C(=O)[C@H](CC(=O)O)NC(=O)[C@H](CO)NC(=O)[C@H](CO)NC(=O)[C@H](Cc1c[nH]cn1)NC(=O)[C@H](Cc1c[nH]cn1)NC(=O)[C@H](CC(C)C)NC(=O)[C@H](Cc1ccccc1)NC(=O)[C@H](CCC(=O)O)NC(=O)[C@H](C)NC(=O)[C@H](CC(C)C)NC(=O)[C@H](CCCNC(=N)N)NC(=O)[C@H](CCC(N)=O)NC(=O)[C@@H](NC(=O)[C@H](CCC(N)=O)NC(=O)[C@H](C)NC(=O)[C@@H](NC(=O)[C@H](CO)NC(=O)[C@H](CC(C)C)NC(=O)[C@H](Cc1c[nH]cn1)NC(=O)[C@H](CO)NC(=O)[C@H](C)NC(=O)CC[C@H](NC(=O)CCCCCCCCCCCCCCCCC(=O)O)C(=O)O)[C@@H](C)O)[C@@H](C)O)C(=O)N1CCC[C@H]1C(=O)N[C@@H](CO)C(=O)N[C@@H](CO)C(=O)N[C@H](C(=O)N[C@@H](CC(=O)O)C(=O)N[C@H](C(=O)NCC(=O)N1CCC[C@H]1C(=O)N[C@@H](CC(=O)O)C(=O)N[C@H](C(=O)N1CCC[C@H]1C(N)=O)[C@@H](C)O)C(C)C)[C@@H](C)O [Compound 8, N^1-[(4S)-4-carboxy-4-(17-carboxyheptadecanoylamino)butanoyl]-[Ala1,Ser2,His3,Leu4,Ser5,Ala7,Gln8,Glu14,His17,Asp21,Pro22,Pro27,Asp31,Pro34,Asp35,Pro37]-human amylin] ({C18 diacid-γGlu}-ASHLSTAQTQRLAEFLHHSSDPFGAIPSSTDVGPDTP-NH2)
EC50 [1]: 1.5 pM | EC50 [2]: 1.44 pM

CC[C@H](C)[C@H](NC(=O)[C@H](CCCCNC(=O)CC[C@H](NC(=O)CCCCCCCCCCCCCCCCC(=O)O)C(=O)O)NC(=O)CNC(=O)[C@H](Cc1ccccc1)NC(=O)[C@H](CC(N)=O)NC(=O)[C@H](CC(=O)O)NC(=O)[C@H](CO)NC(=O)[C@H](CO)NC(=O)[C@H](Cc1c[nH]cn1)NC(=O)[C@H](Cc1c[nH]cn1)NC(=O)[C@H](CC(C)C)NC(=O)[C@H](Cc1ccccc1)NC(=O)[C@H](CCC(=O)O)NC(=O)[C@H](C)NC(=O)[C@H](CC(C)C)NC(=O)[C@H](CCCNC(=N)N)NC(=O)[C@H](C)NC(=O)[C@@H](NC(=O)[C@H](CCC(N)=O)NC(=O)[C@H](C)NC(=O)[C@@H](NC(=O)[C@H](CO)NC(=O)[C@H](CC(C)C)NC(=O)[C@H](Cc1c[nH]cn1)NC(=O)[C@H](CO)NC(=O)[C@H](C)NC(C)=O)[C@@H](C)O)[C@@H](C)O)C(=O)N[C@@H](CC(C)C)C(=O)N1CCC[C@H]1C(=O)N1CCC[C@H]1C(=O)N[C@H](C(=O)N[C@@H](CC(=O)O)C(=O)N[C@H](C(=O)NCC(=O)N[C@@H](CO)C(=O)N[C@@H](CC(N)=O)C(=O)N[C@H](C(=O)N1CCC[C@H]1C(N)=O)[C@@H](C)O)C(C)C)[C@@H](C)O [Compound 41, N^1-acetyl,N{Epsilon-25}-[(4S)-4-carboxy-4-(17-carboxyheptadecanoylamino)butanoyl]-[Ala1,Ser2,His3,Leu4,Ser5,Ala7,Gln8,Ala10,Glu14,His17,Asp21,Lys25,Pro28,Pro29,Asp31,Pro37]-human amylin] (Ac-ASHLSTAQTARLAEFLHHSSDNFGK([γGlu-C18 diacid])ILPPTDVGSNTP-NH2)
EC50 [1]: 1.16 pM | EC50 [2]: 1.16 pM

CC[C@H](C)[C@H](NC(=O)[C@@H]1CCCN1C(=O)CNC(=O)[C@H](Cc1ccccc1)NC(=O)[C@H](Cc1c[nH]cn1)NC(=O)[C@H](Cc1c[nH]cn1)NC(=O)[C@H](CC(C)C)NC(=O)[C@H](Cc1ccccc1)NC(=O)[C@H](CCC(=O)O)NC(=O)[C@H](C)NC(=O)[C@H](CC(C)C)NC(=O)[C@H](CCCNC(=N)N)NC(=O)[C@H](CCC(N)=O)NC(=O)[C@@H](NC(=O)[C@H](CCC(N)=O)NC(=O)[C@H](C)NC(=O)[C@@H](NC(=O)[C@H](CO)NC(=O)[C@H](CC(C)C)NC(=O)[C@H](Cc1c[nH]cn1)NC(=O)[C@H](CO)NC(=O)[C@H](C)NC(=O)CC[C@H](NC(=O)CCCCCCCCCCCCCCCCCCC(=O)O)C(=O)O)[C@@H](C)O)[C@@H](C)O)C(=O)N[C@@H](CC(C)C)C(=O)N1CCC[C@H]1C(=O)N1CCC[C@H]1C(=O)N[C@H](C(=O)N[C@@H](CC(=O)O)C(=O)N[C@H](C(=O)NCC(=O)N[C@@H](CO)C(=O)N[C@@H](CCC(=O)O)C(=O)N[C@H](C(=O)N1CCC[C@H]1C(N)=O)[C@@H](C)O)C(C)C)[C@@H](C)O [Compound 4, N^1-[(4S)-4-carboxy-4-(19-carboxynonadecanoylamino)butanoyl]-[Ala1,Ser2,His3,Leu4,Ser5,Ala7,Gln8,Glu14,His17,Pro25,Pro28,Pro29,Asp31,Glu35,Pro37],des-(19-22)-human amylin] ({C20 diacid-γGlu}-ASHLSTAQTQRLAEFLHHFGPILPPTDVGSETP-NH2)
EC50 [1]: 1.12 pM | EC50 [2]: 1.44 pM

CC[C@H](C)[C@H](NC(=O)[C@H](C)NC(=O)CNC(=O)[C@H](Cc1ccccc1)NC(=O)[C@@H]1CCCN1C(=O)[C@H](CC(=O)O)NC(=O)[C@H](CO)NC(=O)[C@H](CO)NC(=O)[C@H](Cc1c[nH]cn1)NC(=O)[C@H](Cc1c[nH]cn1)NC(=O)[C@H](CC(C)C)NC(=O)[C@H](Cc1ccccc1)NC(=O)[C@H](CCC(=O)O)NC(=O)[C@H](C)NC(=O)[C@H](CC(C)C)NC(=O)[C@H](CCCNC(=N)N)NC(=O)[C@H](CCC(N)=O)NC(=O)[C@@H](NC(=O)[C@H](CCC(N)=O)NC(=O)[C@H](C)NC(=O)[C@@H](NC(=O)[C@H](CO)NC(=O)[C@H](CC(C)C)NC(=O)[C@H](CO)NC(=O)CNC(=O)[C@H](C)NC(=O)CC[C@H](NC(=O)CCCCCCCCCCCCCCCCC(=O)O)C(=O)O)[C@@H](C)O)[C@@H](C)O)C(=O)N1CCC[C@H]1C(=O)N[C@@H](CO)C(=O)N[C@@H](CO)C(=O)N[C@H](C(=O)N[C@@H](CC(=O)O)C(=O)N[C@H](C(=O)NCC(=O)N1CCC[C@H]1C(=O)N[C@@H](CC(=O)O)C(=O)N[C@H](C(=O)N1CCC[C@H]1C(N)=O)[C@@H](C)O)C(C)C)[C@@H](C)O [Compound 10, N^1-[(4S)-4-carboxy-4-(17-carboxyheptadecanoylamino)butanoyl]-[Ala1,Gly2,Ser3,Leu4,Ser5,Ala7,Gln8,Glu14,His17,Asp21,Pro22,Pro27,Asp31,Pro34,Asp35,Pro37]-human amylin] ({C18 diacid-γGlu}-AGSLSTAQTQRLAEFLHHSSDPFGAIPSSTDVGPDTP-NH2)
EC50 [1]: 1.44 pM | EC50 [2]: 1.49 pM
